Assay results published in the supplement of paper PMC11061612.

Experiments:
[1] = test system: EW-22 (Ewing's Sarcoma); experiment: combination Emax (second highest fraction inhibited in the dose matrix, 72 h); higher = more inhibition; extreme values may be limits of the assay
Outline: (§1)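 Cell lines in DMEM/F12 or RPMI with 10% FBS were plated in 1536-well plates, held 24 hours at 37°C, 5% CO2, then given two-drug dose matrices for 72 hours (DMSO typically 0.2%). Viability was read by CellTiter-Glo 2.0 luminescence and scaled as inhibition from 0 (vehicle wells) to 1 (blank wells). Combination Emax is the second-highest inhibition in the matrix; Bliss excess is observed combination effect minus expected EA + EB − EA·EB, EA and EB being single-agent effects.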

[2] = test system: CAL-39 (Other Solid Carcinomas); experiment: as above
Outline: as §1

[3] = test system: SLVL (B-Cell Non-Hodgkin's Lymphoma); experiment: as above
Outline: as §1

[4] = test system: SNG-M (Endometrial Carcinoma); experiment: as above
Outline: as §1

[5] = test system: BICR78 (Oral Cavity Carcinoma); experiment: as above
Outline: as §1

[6] = test system: TC-YIK (Other Solid Carcinomas); experiment: as above
Outline: as §1

[7] = test system: HLE (Hepatocellular Carcinoma); experiment: as above
Outline: as §1

[8] = test system: SK-LMS-1 (Other Solid Carcinomas); experiment: as above
Outline: as §1

[9] = test system: CS1 (Chondrosarcoma); experiment: as above
Outline: as §1

[10] = test system: NOMO-1 (Acute Myeloid Leukemia); experiment: as above
Outline: as §1

[11] = test system: SK-UT-1 (Other Solid Carcinomas); experiment: as above
Outline: as §1

[12] = test system: HCC38 (Breast Carcinoma); experiment: as above
Outline: as §1

[13] = test system: SK-MEL-1 (Melanoma); experiment: as above
Outline: as §1

[14] = test system: D-283MED (Other Solid Carcinomas); experiment: Bliss excess, mean over the matrix (fraction); higher = more synergy;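 note: after 72 h of two-drug dosing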
Outline: as §1

| SMILES | combination Emax [1] | combination Emax [2] | combination Emax [3] | combination Emax [4] | combination Emax [5] | combination Emax [6] | combination Emax [7] | combination Emax [8] | combination Emax [9] | combination Emax [10] | combination Emax [11] | combination Emax [12] | combination Emax [13] | Bliss excess [14] |
| --- | --- | --- | --- | --- | --- | --- | --- | --- | --- | --- | --- | --- | --- | --- |
| O=C(c1cc(Cc2n[nH]c(=O)c3ccccc23)ccc1F)N1CCN(C(=O)C2CC2)CC1 [Olaparib] + CC1(C)CCC(CN2CCN(c3ccc(C(=O)NS(=O)(=O)c4ccc(NCC5CCOCC5)c([N+](=O)[O-])c4)c(Oc4cnc5[nH]ccc5c4)c3)CC2)=C(c2ccc(Cl)cc2)C1 [Venetoclax] (first compound max 10 µM, 7x7, partner max 1 µM) | 0.921 | 0.0578 | 0.7 | 0.179 | 0.108 | 0.403 | 0.0962 | 0.183 | 0.15 | 0.383 | 0.162 | 0.179 | 0.151 | 0.0445 |
| O=C(c1cc(Cc2n[nH]c(=O)c3ccccc23)ccc1F)N1CCN(C(=O)C2CC2)CC1 [Olaparib] + CN(CC[C@H](CSC1=CC=CC=C1)NC2=C(C=C(C=C2)S(=O)(=O)NC(=O)C3=CC=C(C=C3)N4CCC(CC4)[C@H](C5=CC=CC=C5C6=CC=C(C=C6)Cl)O)S(=O)(=O)C(F)(F)F)CCO [AZD4320] (first compound max 10 µM, 7x7, partner max 1 µM) | 0.988 | 0.116 | 0.982 | 0.401 | 0.0831 | 0.984 | 0.274 | 0.494 | 0.431 | 0.348 | 0.466 | 0.482 | 0.42 | 0.0204 |
| O=C(c1cc(Cc2n[nH]c(=O)c3ccccc23)ccc1F)N1CCN(C(=O)C2CC2)CC1 [Olaparib] + COc1nnc2ccc(N3CCC(c4ccc(OCCN5CCN(C)C(=O)[C@H]5C)cc4)CC3)nn12 [AZD5153] (first compound max 10 µM, 7x7, partner max 1 µM) | 0.909 | 0.518 | 0.685 | 0.47 | 0.41 | 0.85 | 0.338 | 0.544 | 0.374 | 0.939 | 0.559 | 0.412 | 0.303 | -0.0542 |
| O=C(c1cc(Cc2n[nH]c(=O)c3ccccc23)ccc1F)N1CCN(C(=O)C2CC2)CC1 [Olaparib] + Cc1c2c(nn1C)CSCc1cc(n(C)n1)CSc1cc(c3ccccc3c1)OCCCc1c(C(=O)O)n(C)c3c-2c(Cl)ccc13 [AZD5991] (first compound max 10 µM, 7x7, partner max 1 µM) | 0.93 | 0.21 | 0.362 | 0.234 | 0.0524 | 0.449 | 0.157 | 0.165 | 0.0992 | 0.771 | 0.109 | 0.156 | 0.127 | 0.0172 |
| N#Cc1cnc(Nc2cc(NC[C@H]3CNCCO3)c(C(F)(F)F)cn2)cn1 [SRA737] + C=CCn1c(=O)c2cnc(Nc3ccc(N4CCN(C)CC4)cc3)nc2n1-c1cccc(C(C)(C)O)n1 [AZD1775] (first compound max 10 µM, partner max 1 µM) | 0.873 | 0.454 | 0.935 | 0.883 | 0.561 | 0.858 | 0.485 | 0.649 | 0.596 | 0.988 | 0.843 | 0.576 | 0.277 | 0.0779 |
| N#Cc1cnc(Nc2cc(NC[C@H]3CNCCO3)c(C(F)(F)F)cn2)cn1 [SRA737] + CCc1c2c(nc3ccc(O)cc13)-c1cc3c(c(=O)n1C2)COC(=O)[C@]3(O)CC [SN-38] (first compound max 10 µM, 7x7, partner max 0.3 µM) | 0.932 | 0.93 | 0.945 | 0.786 | 0.854 | 1 | 0.798 | 0.89 | 0.786 | 0.997 | 0.943 | 0.682 | 0.486 | -0.0395 |
| N#Cc1cnc(Nc2cc(NC[C@H]3CNCCO3)c(C(F)(F)F)cn2)cn1 [SRA737] + Nc1ccn([C@@H]2O[C@H](CO)[C@@H](O)C2(F)F)c(=O)n1 [Gemcitabine] (first compound max 10 µM, 7x7, partner max 0.3 µM) | 0.93 | 0.932 | 0.961 | 0.869 | 0.782 | 0.872 | 0.773 | 0.855 | 0.737 | 1 | 0.957 | 0.731 | 0.482 | 0.0135 |
| N#Cc1cnc(Nc2cc(NC[C@H]3CNCCO3)c(C(F)(F)F)cn2)cn1 [SRA737] + O=c1[nH]cc(F)c(=O)[nH]1 [5-Fluorouracil] (first compound max 10 µM, 7x7, partner max 20 µM) | 0.736 | 0.345 | 0.927 | 0.71 | 0.55 | 0.723 | 0.129 | 0.268 | 0.405 | 0.985 | 0.799 | 0.507 | 0.157 | -0.0048 |
| CC1(C)CCC(CN2CCN(c3ccc(C(=O)NS(=O)(=O)c4ccc(NCC5CCOCC5)c([N+](=O)[O-])c4)c(Oc4cnc5[nH]ccc5c4)c3)CC2)=C(c2ccc(Cl)cc2)C1 [Venetoclax] + CS(=O)(=O)CCNCc1ccc(-c2ccc3ncnc(Nc4ccc(OCc5cccc(F)c5)c(Cl)c4)c3c2)o1 [Lapatinib] (first compound max 1 µM, 7x7, partner max 10 µM) | 0.214 | 0.913 | 0.26 | 0.247 | 0.364 | 0.294 | 0.137 | 0.212 | 0.411 | 0.319 | 0.458 | 0.169 | 0.327 | -0.0416 |
